These results are taken from PubChem BioAssay (NCI).

Test systems include PC-3 prostate; LOX IMVI melanoma; HL-60(TB) leukemia; SK-MEL-28 melanoma; MCF7 breast; 786-0 renal; MALME-3M melanoma; MOLT-4 leukemia.
What all share (experiment): growth of human tumour cells (NCI), 48 h

Each structure is given as a SMILES string.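 Each compound was tested at five concentrations against cells in 96-well plates for 48 hours. GI50 marks 50% less growth. TGI marks complete inhibition of growth.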 A value given as a limit tells only on which side of the number the result lay.

On to `CC1=CC2C(C(C)C)CC1C1C(=O)OC(=O)C21` (configuration not stated), for which the TGI in the experiment with PC-3 prostate was over 100 µM; in the experiment on LOX IMVI melanoma, over 100 µM; in the experiment on HL-60(TB) leukemia it was 77.8 µM; in the experiment on SK-MEL-28 melanoma it was over 100 µM; in the experiment with MCF7 breast it was over 100 µM; with 786-0 renal, over 100 µM. Also, the TGI in the experiment on MALME-3M melanoma was over 100 µM.
As for `C[n+]1ccc(-c2c3nc(c(-c4ccc5c(ccc[n+]5C)c4)c4ccc([nH]4)c(-c4cc[n+](C)cc4)c4nc(c(-c5ccc6c(ccc[n+]6C)c5)c5ccc2[nH]5)C=C4)C=C3)cc1`, the GI50 in the experiment on MOLT-4 leukemia was over 50 µM; in the experiment on PC-3 prostate it was 49.5 µM; in the experiment with LOX IMVI melanoma, over 50 µM; in the experiment on HL-60(TB) leukemia, 9.19 µM; in the experiment with SK-MEL-28 melanoma, 28.5 µM; with MCF7 breast it was 42.5 µM. Moreover, the GI50 in the experiment on 786-0 renal and in the experiment with MALME-3M melanoma was over 50 µM each time. For the same compound, the TGI in the experiment with MOLT-4 leukemia was over 50 µM; in the experiment with PC-3 prostate, over 50 µM; in the experiment with LOX IMVI melanoma, over 50 µM; in the experiment on HL-60(TB) leukemia, 17.2 µM; in the experiment with SK-MEL-28 melanoma, over 50 µM; with MCF7 breast it was over 50 µM. In addition, the TGI in the experiment on 786-0 renal and with MALME-3M melanoma was over 50 µM each time.
For `CC(C)[C@@H]1CC[C@@H]2[C@@H]1[C@H](OC(=O)/C=C/c1ccccc1)[C@]1(C(C)C)C[C@@H](OC(=O)CO)[C@@]2(C)O1`, the GI50 in the experiment with MOLT-4 leukemia is 6.94 µM; with PC-3 prostate it was 5.31 µM; in the experiment with LOX IMVI melanoma, 5.36 µM; in the experiment on HL-60(TB) leukemia, 8.07 µM; in the experiment on SK-MEL-28 melanoma, 4.89 µM; with MCF7 breast, 4.88 µM. For the same compound, the GI50 was 4.55 µM with 786-0 renal and 5.97 µM with MALME-3M melanoma. The TGI in the experiment with MOLT-4 leukemia worked out at 14.9 µM; with PC-3 prostate, 12.2 µM; in the experiment with LOX IMVI melanoma it was 10.2 µM; in the experiment with HL-60(TB) leukemia it was 18.4 µM; in the experiment with SK-MEL-28 melanoma it was 9.87 µM; with MCF7 breast, 10.5 µM. Further, the results for the TGI with 786-0 renal and in the experiment on MALME-3M melanoma were 9.23 µM and 11.1 µM, respectively.
Take `CCCCCCCCCC(CCCC(O)CC(=O)O)OC1OC(COC2OC(C)C(O)C(O)C2O)C(O)C(O)C1OC1OC(CO)C(O)C(O)C1OC1OC(C)C(O)C(O)C1O` (configuration not stated): the GI50 in the experiment on MOLT-4 leukemia, with PC-3 prostate, in the experiment on LOX IMVI melanoma, in the experiment on HL-60(TB) leukemia, in the experiment on SK-MEL-28 melanoma and with MCF7 breast was over 40 µM throughout. The GI50 in the experiment on 786-0 renal and in the experiment on MALME-3M melanoma was over 40 µM each time. The TGI with MOLT-4 leukemia, in the experiment on PC-3 prostate, with LOX IMVI melanoma, in the experiment on HL-60(TB) leukemia, in the experiment with SK-MEL-28 melanoma and in the experiment with MCF7 breast was over 40 µM each time. The TGI with 786-0 renal and with MALME-3M melanoma was over 40 µM in each case.
On to `COC(=O)c1ccc(C2SCC(=O)N2NC(=O)C(O)c2ccccc2)cc1` (configuration not stated), for which the GI50 in the experiment with MOLT-4 leukemia, in the experiment on PC-3 prostate, with LOX IMVI melanoma, in the experiment on SK-MEL-28 melanoma, with MCF7 breast and in the experiment on 786-0 renal was over 100 µM each time. The GI50 in the experiment on MALME-3M melanoma was over 100 µM. The TGI in the experiment on MOLT-4 leukemia, in the experiment on PC-3 prostate, with LOX IMVI melanoma, in the experiment on SK-MEL-28 melanoma, with MCF7 breast and in the experiment on 786-0 renal was over 100 µM in each case. The TGI in the experiment on MALME-3M melanoma was over 100 µM.
Take `O=CC1(C2(C=O)c3ccccc3-c3ccccc32)c2ccccc2-c2ccccc21`: the GI50 in the experiment on MOLT-4 leukemia was 1.38 µM; in the experiment on PC-3 prostate it was 1.44 µM; with LOX IMVI melanoma, 1.89 µM; in the experiment on HL-60(TB) leukemia, 1.75 µM; in the experiment on SK-MEL-28 melanoma it was 1.72 µM; in the experiment on 786-0 renal it was 2.16 µM. The GI50 with MALME-3M melanoma was 2.68 µM. Further, the TGI with MOLT-4 leukemia turned out to be 3.33 µM; with PC-3 prostate it was 4.65 µM; in the experiment on LOX IMVI melanoma it was 3.98 µM; with HL-60(TB) leukemia, 3.21 µM; in the experiment on SK-MEL-28 melanoma, 3.38 µM; in the experiment on 786-0 renal, 5.34 µM. Also, the TGI in the experiment on MALME-3M melanoma was determined as 5.94 µM.
For `COc1cc2c3c(n(CCCCl)c(=O)c2cc1OC)-c1ccc(C#N)cc1C3=O`, the GI50 with MOLT-4 leukemia was 1.68 µM; with PC-3 prostate, 32.4 µM; with LOX IMVI melanoma, 3.43 µM; with SK-MEL-28 melanoma, over 100 µM; in the experiment on MCF7 breast, 7.3 µM; in the experiment with 786-0 renal, 14.4 µM. Further, the GI50 in the experiment with MALME-3M melanoma was 2.49 µM. The TGI was over 100 µM in the experiment with MOLT-4 leukemia; over 100 µM in the experiment on PC-3 prostate; 19.4 µM in the experiment with LOX IMVI melanoma; over 100 µM in the experiment with SK-MEL-28 melanoma; over 100 µM in the experiment on MCF7 breast; 29.4 µM in the experiment with 786-0 renal. Moreover, the TGI with MALME-3M melanoma turned out to be 74.4 µM.
For `C=C1N(C)c2ccc(Cl)cc2C1(C)C`, the GI50 was 6.94 µM in the experiment on MOLT-4 leukemia; 6.98 µM with LOX IMVI melanoma; 2.33 µM with HL-60(TB) leukemia; 19.7 µM in the experiment on SK-MEL-28 melanoma; 6.65 µM in the experiment with MCF7 breast; 16.9 µM in the experiment on 786-0 renal. Further, the GI50 in the experiment on MALME-3M melanoma was 3.32 µM. The TGI in the experiment with MOLT-4 leukemia is 55 µM; in the experiment with LOX IMVI melanoma it was 55.5 µM; with HL-60(TB) leukemia, 8.85 µM; with SK-MEL-28 melanoma, over 100 µM; in the experiment on MCF7 breast it was 58.7 µM; in the experiment with 786-0 renal, 96.1 µM. The compound further came in with a TGI in the experiment with MALME-3M melanoma of 20.5 µM.
Turning to `O=S(=O)(NCCCNc1cc(-c2cn(-c3ccccc3)nc2-c2cccc(O)c2)ccn1)c1ccc(Cl)cc1`, the GI50 is 1.26 µM in the experiment with MOLT-4 leukemia; 1.74 µM with PC-3 prostate; 1.42 µM with LOX IMVI melanoma; 2.09 µM with HL-60(TB) leukemia; 1.84 µM with MCF7 breast; 1.56 µM in the experiment with 786-0 renal. The TGI is 3.69 µM in the experiment on MOLT-4 leukemia; 6.1 µM in the experiment on PC-3 prostate; 2.77 µM in the experiment on LOX IMVI melanoma; 5.61 µM in the experiment with HL-60(TB) leukemia; 5.01 µM in the experiment with MCF7 breast; 4.19 µM in the experiment with 786-0 renal.
`CC(C)Oc1ccc(C(=O)N[C@H](CNC(=O)CN(C)C)Cc2ccc(-c3cn4cccc([C@H](C)O)c4n3)cc2)cc1Cl`: the GI50 in the experiment on MOLT-4 leukemia was 0.0441 µM; with PC-3 prostate it was 0.0664 µM; in the experiment with LOX IMVI melanoma, 0.0736 µM; with SK-MEL-28 melanoma, 4 µM; with MCF7 breast it was 0.0366 µM; with 786-0 renal, 0.0578 µM. The GI50 in the experiment on MALME-3M melanoma was 0.078 µM. The TGI in the experiment on MOLT-4 leukemia is 18 µM; with PC-3 prostate, 21.4 µM; with LOX IMVI melanoma it was 14.5 µM; in the experiment with SK-MEL-28 melanoma, 20.3 µM; in the experiment on MCF7 breast, 19.5 µM; in the experiment with 786-0 renal it was 17.8 µM. Besides, the TGI in the experiment with MALME-3M melanoma was found to be 16.3 µM.
